For series [1], the target named is T1, COX-2 (Homo sapiens, UniProt P35354).
T1 sequence (P35354 18-604): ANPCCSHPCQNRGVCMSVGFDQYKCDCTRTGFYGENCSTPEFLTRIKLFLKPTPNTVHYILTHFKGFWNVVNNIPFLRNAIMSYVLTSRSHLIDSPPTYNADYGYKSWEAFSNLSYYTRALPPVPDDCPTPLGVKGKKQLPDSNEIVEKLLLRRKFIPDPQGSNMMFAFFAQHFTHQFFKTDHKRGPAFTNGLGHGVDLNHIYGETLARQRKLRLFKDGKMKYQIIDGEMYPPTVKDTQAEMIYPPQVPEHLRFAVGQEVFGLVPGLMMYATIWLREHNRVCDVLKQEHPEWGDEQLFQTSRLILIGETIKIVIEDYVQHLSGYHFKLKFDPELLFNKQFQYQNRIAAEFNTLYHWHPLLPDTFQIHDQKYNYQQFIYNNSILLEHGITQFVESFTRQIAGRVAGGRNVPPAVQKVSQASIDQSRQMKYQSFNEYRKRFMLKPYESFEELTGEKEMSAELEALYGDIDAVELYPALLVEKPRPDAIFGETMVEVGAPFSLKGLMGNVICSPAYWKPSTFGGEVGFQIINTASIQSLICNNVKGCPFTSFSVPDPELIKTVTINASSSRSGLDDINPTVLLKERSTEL
The series can be described thus: IC50 determinations using purified enzymes (TLC assay), COX-2. It is filed as biochemical. Further details: made in house; host or cells: Sf9 insect cells.

Series [2] concerns the target T2, ovine COX-1 (Ovis aries, UniProt P05979).
T2 construct: can be purified from ovine seminal vesicles by standard procedures; from tissue; host or cells: ovine seminal vesicles
T2 sequence (P05979 25-600): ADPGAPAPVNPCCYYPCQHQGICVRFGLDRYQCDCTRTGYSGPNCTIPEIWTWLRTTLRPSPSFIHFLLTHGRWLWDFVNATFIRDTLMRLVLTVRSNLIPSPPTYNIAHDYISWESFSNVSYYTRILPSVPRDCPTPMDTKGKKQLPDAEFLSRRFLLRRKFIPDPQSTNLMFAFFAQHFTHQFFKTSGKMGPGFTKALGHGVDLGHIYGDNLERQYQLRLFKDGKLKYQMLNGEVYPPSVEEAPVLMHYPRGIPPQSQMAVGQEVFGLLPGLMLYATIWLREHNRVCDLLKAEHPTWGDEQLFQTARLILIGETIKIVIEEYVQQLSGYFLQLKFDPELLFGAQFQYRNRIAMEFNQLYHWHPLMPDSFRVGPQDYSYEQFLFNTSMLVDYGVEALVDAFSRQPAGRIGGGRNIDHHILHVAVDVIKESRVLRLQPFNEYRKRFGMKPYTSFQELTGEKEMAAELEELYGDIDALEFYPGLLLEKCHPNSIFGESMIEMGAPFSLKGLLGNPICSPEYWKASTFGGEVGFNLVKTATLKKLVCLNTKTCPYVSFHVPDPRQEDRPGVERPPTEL
In words: IC50 determinations using purified enzymes (TLC assay), COX-1. It is filed as biochemical. To be noted: assayed against purified enzymes.

For series [3], the system named is 1483 HNSCC cells. The series can be described thus: In vitro metabolism study (esterase hydrolysis) with 1483 HNSCC cells, RP-HPLC. Particulars: up to 24 hours. The format is in vitro ADME. How it is done:
(§1) An in vitro metabolism study was performed with Compound 27i using 1483 HNSCC cells to check the enzymatic (esterase) hydrolysis of the conjugate and identify metabolites up to 24 hours (h).

Experiment in series [4]: as above
The format is in vitro ADME. Particulars: human, read-out: t1/2, disappearance of the parent conjugate (converted). How it is done: as §1

In series [5] the target is T3, COX-1 (Ovis aries, UniProt P05979).
T3 sequence (P05979 25-600): T2 sequence (P05979 25-600)
Particulars: literature; cited from earlier work.

Series [6] relates to RAW264.7 cells. The series can be described thus: In vitro cell imaging, LPS/IFNγ-activated RAW264.7 cells. The format is cell-based, mouse. Particulars: RAW264.7, HEK293/COX-2 and 1483 imaging assays. As to the method: RAW264.7 cells (a line established from a tumor induced in a mouse by Abelson murine leukemia virus and available from the American Type Culture Collection, Manassas, Va., United States of America) were grown overnight on 35 mm culture dishes (MatTek Corp., Ashland, Mass., United States of America) with glass coverslips in Dulbecco's Modified Eagle Medium (DMEM) plus 10% heat-inactivated fetal bovine serum (FBS). Platings of cells were done in order to reach 30% confluency the next day. After overnight growth, the growth medium was replaced with 2 ml serum-free DMEM per dish. Individual dishes then received 200 ng/ml LPS plus 10 units/ml murine IFNγ (Roche Applied Science, Indianapolis, Ind., United States of America) for 6 hours to induce COX-2. […] After 30 minutes, the cells were washed briefly three times in medium and incubated in Hank's balanced salt solution (HBSS)/Tyrode's for 60 minutes at 37° C. After 60 minutes, the HBSS/Tyrode's was removed and fresh HBSS/Tyrode's was added. The cells were immediately imaged using a Zeiss Axiovert 25 Microscope (propidium iodide filter/2-3 sec exposure/gain of 2).

Series [7] has as its target T1, COX-2. Further details: 1483 Head/Neck Squamous Cell Carcinoma Cells (Sacks et al. (1988) Cancer Res 48, 2858-2866), which express COX-2; endogenous in cells; host or cells: 1483 HNSCC cells. To be noted: literature; cited from earlier work.
In series [8] the test system is COX-1. To be noted: literature; cited from earlier work.

pIC50: −log10 of the molar value. Read-outs that look alike come from different tables or passages of the source. Some results are limits rather than exact numbers.

By pIC50 is commonly meant the IC50 on a negative log10 scale, so that one unit is a factor of ten. Consider `COc1ccc2c(c1)c(CC(=O)NCCOC(=O)\C=C(C)/C=C/C=C(C)/C=C/C1=C(C)CCCC1(C)C)c(C)n2C(=O)c1ccc(Cl)cc1` [Compound 27i], for which the pIC50 in series [1] (purified enzyme, read-out: COX-2 IC50) is 6.97; in series [2] (Table 1), less than 5.40. Moreover, the parent conjugate remained in series [3] stood at 25%. In series [4], the half-life is 5.5 h.
Consider `COc1ccc2c(c1)c(CC(=O)Nc1ccc(F)cc1)c(C)n2C(=O)c1ccc(Cl)cc1` [p-fluorophenylamide of indomethacin, indomethacin-N-(4-fluorophenyl)amide], for which the pIC50 in series [5] is less than 4.18.
Turning to `COc1ccc2c(c1)c(CCNC(=O)c1ccc(C3=c4cc5c6c(c4Oc4c3cc3c7c4CCCN7CCC3)CCC[N+]=6CCC5)c(C(=O)[O-])c1)c(C)n2Cc1ccc(Br)cc1` [Compound 28f], the pIC50 was less than 4.60 in series [1] (Table 3, assayed against purified enzymes, read-out: IC50 COX-2) and less than 4.60 in series [2] (Table 3). Moreover, the “fluorescence of control compounds in these in vitro assays” value in series [6] is on record as “minimal fluorescence”.
Turning to `O=C(c1ccccc1)c1ccc2n1CCC2C(=O)NCc1ccc(F)cc1` (centres unmarked) [p-fluorobenzylamide of ketorolac], the pIC50 was less than 4.19 in series [5] and 7.10 in series [7].
Turning to `COc1ccc2c(c1)c(CC(=O)O)c(C)n2C(=O)c1ccc(Cl)cc1` [Indomethacin, indomethacin], in series [8], the “potency as ligand of COX-1 relative to COX-2” value is “approximately 15 fold”.

The record behind these values is patent US7736624B2, “Methods and compositions for diagnostic and therapeutic targeting of COX-2” (priority 2006, dated 2010).
